Test results from patent US20110177105A1, “Novel Selective Inhibitors of Ubiquitin Specific Protease 7, the Pharmaceutical Compositions Thereof and Their Therapeutic Applications” (priority 2010, published 2011).

Molecular target: USP7 (Homo sapiens, UniProt Q93009)
Assay: HA-Ub-VS labeling of active DUBs in HCT116 cell lysates
Assay type: biochemical
Parameters: endogenous in cells; host or cells: HCT116 (inducible USP7 shRNA line) cell lysate
Conditions: for HA-Ub-VS-USP7 protein level: different doses (100 μM to 3 μM)
Source text: The C-terminally modified vinyl sulfone derivative of ubiquitin, UbVS, was clearly helpful for a direct visualization of active DUBs in cells. This tool, which binds covalently to the cysteine active site of deubiquitinating enzymes, was successfully applied to discover and characterize novel ubiquitin/ubiquitin-like proteases and to profile active deubiquitinating enzymes in normal, virus-infected, and malignant cells (Borodovsky et al., Chem Biol 2002, 9, 1149-1159, Hemelaar et al., Mol Cell Biol 2004, 24, 84-95, Ovaa et al., Proc Natl Acad Sci USA 2004 101, 2253-2258).
The HA-Ub-VS probe (Hemagglutin tag-Ubiquitin-Vinyl Sulfone) was used in this study to directly visualize the activity of all deubiquitinating enzymes from cell lysates. This tool was used to evaluate the activity/specificity of our small molecule compounds on USP7 relative to all deubiquitinating enzymes active in physiological conditions.
Inducible USP7 shRNA HCT116 cells (previously treated with or without Doxycycline (2 μg/ml) for 4 days) as well as HEK293 cells were harvested and lysed on ice with a non denaturating buffer containing Tris pH 7.4, 50 mM; NaCl, 150 mM; MgCl2, 5 mM; EDTA, 0.5 mM; DTT, 2 mM; ATP, 2 mM; NP40, 0.5% and glycerol, 10%. Samples were incubated at 4° C. for 1 hour and clarified. Proteins were then quantified by Bradford method (Bio-Rad Protein Assay). 25 μg of proteins from native cell lysates were treated with compounds of examples 14 and 5 (from 100 μM to 3 μM) or with NEM (N-Ethylmaleimide, a thiol-reactive compound, 5 mM) for 2 hours at room temperature. The ubiquitin labeling reaction was initiated by the addition of HA-Ub-VS (8 μg/ml) in labeling buffer (Tris pH 7.6, 50 mM; MgCl2, 5 mM; EDTA, 0.5 mM; DTT, 2 mM; ATP, 2 mM; sucrose, 250 mM) and incubated at room temperature for 30 min. Samples were next heated at 100° C. for 10 minutes and briefly sonicated. They were resolved by SDS-polyacrylamide gel electrophoresis (SDS-PAGE), transferred to a nitrocellulose membrane and probed with antibodies against USP7 (Bethyl Lab, A300-034A), HA (BabCO, MMS-101P), and actin (Sigma, A2066). Horseradish peroxidase (HRP)-conjugated anti-mouse (Jackson Laboratories, 115-035-003) or HRP-conjugated anti-rabbit (Cell Signaling, 7074) antibodies were used as secondary antibodies. Signals were detected by enhanced chemiluminescence (ECL; Amersham) according to the reagent manufacturer's instructions.

Sequence of USP7 (Q93009 whole entry): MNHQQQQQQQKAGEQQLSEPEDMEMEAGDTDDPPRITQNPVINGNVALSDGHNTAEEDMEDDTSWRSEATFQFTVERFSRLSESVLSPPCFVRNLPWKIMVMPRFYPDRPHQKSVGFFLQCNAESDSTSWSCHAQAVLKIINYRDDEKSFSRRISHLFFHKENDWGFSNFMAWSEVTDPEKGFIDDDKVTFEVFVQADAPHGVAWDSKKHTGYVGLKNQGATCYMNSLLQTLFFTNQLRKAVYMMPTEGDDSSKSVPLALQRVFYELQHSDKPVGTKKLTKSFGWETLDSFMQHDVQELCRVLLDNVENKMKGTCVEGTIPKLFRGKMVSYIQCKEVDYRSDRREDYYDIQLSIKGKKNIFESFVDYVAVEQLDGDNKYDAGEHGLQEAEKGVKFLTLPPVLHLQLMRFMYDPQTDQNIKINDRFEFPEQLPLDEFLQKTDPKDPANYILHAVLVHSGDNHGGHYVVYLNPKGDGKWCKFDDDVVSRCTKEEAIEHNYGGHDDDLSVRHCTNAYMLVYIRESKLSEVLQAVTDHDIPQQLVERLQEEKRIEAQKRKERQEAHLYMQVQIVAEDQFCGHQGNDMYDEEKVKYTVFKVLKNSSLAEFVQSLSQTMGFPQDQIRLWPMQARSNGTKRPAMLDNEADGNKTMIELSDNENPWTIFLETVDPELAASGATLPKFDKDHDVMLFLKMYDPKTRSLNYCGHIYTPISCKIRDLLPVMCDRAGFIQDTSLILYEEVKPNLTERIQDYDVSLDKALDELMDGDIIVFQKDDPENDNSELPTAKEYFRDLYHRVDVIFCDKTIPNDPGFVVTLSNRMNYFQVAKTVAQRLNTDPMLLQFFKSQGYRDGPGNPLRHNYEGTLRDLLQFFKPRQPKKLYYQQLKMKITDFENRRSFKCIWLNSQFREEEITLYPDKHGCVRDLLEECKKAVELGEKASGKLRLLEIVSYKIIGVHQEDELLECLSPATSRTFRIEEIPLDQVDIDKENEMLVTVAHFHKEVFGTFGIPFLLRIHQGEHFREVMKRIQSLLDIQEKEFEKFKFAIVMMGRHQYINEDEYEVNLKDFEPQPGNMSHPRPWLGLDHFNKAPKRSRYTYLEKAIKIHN

HA-Ub-VS-USP7 protein level | HA-Ub-VS labeled DUB bands after treatment (HA-Ub-VS-USP7 band) (fixed dose 50 μM, anti-HA immunoblot) | Compound
specific and dose-dependent decrease |  | CCN(CCCNC(=O)c1ccc2c(Cl)c3c(nc2c1)CCCC3)Cc1ccccc1 [Example 5, 9-Chloro-5,6,7,8-tetrahydro-acridine-3-carboxylic acid [3-(benzyl-ethyl-amino)-propyl]-amide]
specific and dose-dependent decrease | only one band was decreased | CN(CCCNC(=O)c1ccc2c(Cl)c3c(nc2c1)CCCC3)Cc1ccccc1 [Example 14, 9-Chloro-5,6,7,8-tetrahydro-acridine-3-carboxylic acid [3-(benzyl-methyl-amino)-propyl]-amide]
